{
  "source": "patent US20100190805A1",
  "about": "“PREPARATION FOR THE TREATMENT OF EQUINE LAMINITIS” (BOEHRINGER INGELHEIM VETMEDICA GMBH, priority 2007, published 2010)",
  "key": {"[1]": {"system": "horses suffering from acute laminitis", "experiment": "Treatment of horses suffering from laminitis with allopurinol (case reports)", "type": "in vivo, horse", "details": "oral allopurinol 1 to 50 mg/kg of body weight", "excerpt": "Thus there are also positive effects on the general condition. […] Only by treating with allopurinol is it possible to carry out this treatment as horses suffering acute pain cannot be fitted with supports."}, "[2]": {"details": "horses, cited from earlier work"}},
  "data": [
    {"smiles": "Oc1ncnc2[nH]ncc12", "note": "[allopurinol]", "values": [
      {"measurement": "appetite / general condition", "setting": "[1]", "value": "appetite returns"},
      {"measurement": "inflammation", "setting": "[1]", "value": "decline after three days' treatment"},
      {"measurement": "lameness", "setting": "[1]", "value": "reduced"},
      {"measurement": "pain", "setting": "[1]", "value": "decline after three days' treatment"},
      {"measurement": "time until horses can be fitted with an orthopaedic hoof support", "setting": "[1]; time after the start of treatment", "value": "roughly one week after the start of treatment"},
      {"measurement": "bioavailability after oral administration", "setting": "[2]; oral administration", "value": 14.3, "unit": "%"},
      {"measurement": "sum of the areas under the concentration/time curves of allopurinol and oxypurinol after oral administration of allopurinol", "setting": "[2]; oral versus intravenous allopurinol", "value": "identical to that of allopurinol administered intravenously"}
    ]}
  ]
}
